Test results taken from PubChem BioAssay (NCI).
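Assay format: 96-well plates, 48-hour exposure. TGI: concentration producing complete growth inhibition.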

How the values were obtained:
Assay in all cases: DTP human tumour cell line panel, 48 h
HL-60(TB) leukemia = test system: HL-60(TB) leukemia
RPMI-8226 leukemia = test system: RPMI-8226 leukemia
HCT-116 colon = test system: HCT-116 colon
MDA-MB-435 = test system: MDA-MB-435
T-47D breast = test system: T-47D breast
OVCAR-3 ovarian = test system: OVCAR-3 ovarian
HCT-15 colon = test system: HCT-15 colon
SF-268 CNS = test system: SF-268 CNS
MALME-3M melanoma = test system: MALME-3M melanoma
NCI/ADR-RES ovarian = test system: NCI/ADR-RES ovarian

SMILES | TGI (HL-60(TB) leukemia) [µM] | TGI (RPMI-8226 leukemia) [µM] | TGI (HCT-116 colon) [µM] | TGI (MDA-MB-435) [µM] | TGI (T-47D breast) [µM] | TGI (OVCAR-3 ovarian) [µM] | TGI (HCT-15 colon) [µM] | TGI (SF-268 CNS) [µM] | TGI (MALME-3M melanoma) [µM] | TGI (NCI/ADR-RES ovarian) [µM]
CC1(C)CC(=O)C2=C(C1)OC1=C(CC(C)(C)CC1=O)C2c1ccccc1[N+](=O)[O-] (stereo not given) | > 100 | > 100 | > 100 | > 100 | > 100 | > 100 | > 100 | > 100 | > 100 | > 100
CCOC(=O)C1=C(C)N(c2ccc(OC)cc2)C2(O)C=CC(=O)C3=C(O)c4ccccc4C(=O)C312 (stereo not given) | 21.6 | 10.9 | 23.4 | 18.7 | 32.7 | 11.7 | 20.9 | 9.82 | 1.17 | 20.1
COc1cc2nc(-c3cccs3)[nH]c(=O)c2cc1OC | > 100 | > 100 | > 100 | > 100 | > 100 | > 100 | > 100 | > 100 | > 100 | > 100
CSc1c(C(=O)Nc2ccc(Cl)cc2)c(N)n(N)c(=O)c1C#N | > 100 | > 100 | > 100 | > 100 | > 100 | > 100 | > 100 | > 100 | > 100 | > 100
CCN(CC)c1ccc(/C=C/C=C2C(=O)NC(=S)NC2=O)cc1 | 11 | > 100 | > 100 | 34.7 | > 100 | > 72.6 | > 100 | > 100 | > 100 | 41.8
CCn1c(SCC(=O)NNC(=S)NC)nc2ccccc2c1=O | > 100 | > 100 | > 100 | > 100 | > 100 | > 100 | > 100 | > 100 | > 100 | > 100
C/C1=C\C=C(\C(C)C)CC/C(C(=O)O)=C\CC/C(C)=C/CC1 | 56.8 | 42.2 | 29.8 | 56.4 | > 100 | 31.4 | 51.1 | > 100 | 52.2 | 76.2
CC1CC(=O)N(N(C)C)C(C#N)(C#N)C1(C#N)C#N (stereo not given) | 4.83 | 32 | 51.7 | 32.9 | 42.1 | 44.6 | 31.6 | > 58.9 | 29.3 | 55
CC(=N\N)/C(C)=N/N=C(C)/C(C)=N/N=C(C)/C(C)=N/N | > 100 | > 100 | > 100 | > 100 | > 100 | > 100 | > 100 | > 100 | > 100 | > 100
CN(C)c1cccc(NC2=NCCO2)c1 | 50.5 | > 100 | > 100 | 42.9 | > 100 | > 100 | > 100 | > 100 | > 100 | > 100
Fc1cccc(F)c1C1SCc2nc3ccc(Cl)cc3n21 (stereo not given) | > 100 | > 100 | > 100 | > 100 | > 100 | > 100 | > 100 | > 100 | > 100 | > 100
CNc1ncc(-c2nnnn2-c2ccccc2)c(CN(C)C)n1 | > 100 | > 100 | > 100 | > 100 | > 100 | > 100 | > 100 | > 100 | > 100 | > 100
COC(=O)c1ccc(Nc2nc3nc[nH]c3c(=O)[nH]2)cc1 | > 100 | > 100 | > 100 | > 100 | > 100 | > 100 | > 100 | > 100 | > 100 | > 100
Cc1ccc2c(c1)C(=O)C(C1OC(=O)c3ccccc31)C2 (stereo not given) | > 100 | > 100 | > 100 | > 100 | > 100 | > 100 | > 100 | > 100 | > 100 | > 100
